Results published in patent US20120165319A1, “INHIBITORS OF INTERLEUKIN-1 BETA CONVERTING ENZYME” (VERTEX PHARMACEUTICALS INCORPORATED, priority 1995, published 2012).
Read-outs that look alike come from different tables or passages of the source.

Experiments:
IL-1β, human whole blood = test: Whole blood assay for IL-1β production; format: cell-based; conditions: read-out: Whole human blood IC50
Outline: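 Human whole blood collected on Na2EDTA was treated with serially diluted compound in saline and then stimulated with LPS at 5.0 ng/ml final, for 16-18 h at 30 °C, in duplicate or triplicate. Plasma IL-1β was measured by ELISA at 1:200 dilution.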

ICE = target: T1, ICE (Homo sapiens, UniProt P29466); test: Enzyme assay with UV-visible substrate (visible ICE assay, Succinyl-Tyr-Val-Ala-Asp-pNitroanilide); format: biochemical
T1 sequence (P29466 120-297 limits assumed): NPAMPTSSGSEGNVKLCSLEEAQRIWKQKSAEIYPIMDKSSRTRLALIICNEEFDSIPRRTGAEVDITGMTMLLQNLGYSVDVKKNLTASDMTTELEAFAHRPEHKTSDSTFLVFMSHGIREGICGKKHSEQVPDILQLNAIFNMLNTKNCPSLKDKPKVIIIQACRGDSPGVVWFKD
T1 sequence (P29466 317-404 limits assumed): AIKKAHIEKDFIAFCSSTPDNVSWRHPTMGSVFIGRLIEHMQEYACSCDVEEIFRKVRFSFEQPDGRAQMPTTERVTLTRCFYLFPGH
Outline: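 Human ICE was preincubated with inhibitor in DMSO and buffer for 15 min at room temperature, then succinyl-Tyr-Val-Ala-Asp-pNA was added. pNA release was followed at 405-603 nm for 20 min at 37° C. Ki and inhibition mode came from fitting rates to standard kinetic equations.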

[1] = system: IL-1β, human peripheral blood mononuclear cells (PBMC); test: PBMC cell assay: IL-1β assay with human PBMC or enriched adherent mononuclear cells, LPS-stimulated; format: cell-based
Outline: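 Buffy-coat human PBMC at 6×10^6 cells/ml, or adherent monocytes enriched by 1 h adherence (2.5−3.0×10^5 cells/well), are given 5–6 compound dilutions bracketing the ICE Ki (final DMSO 0.1%) plus LPS at a final 5 ng/ml. They are incubated 16–18 hr at 37 °C, 5% CO2, and supernatant mature IL-1β is measured by ELISA, with duplicate cultures and duplicate ELISAs.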

[2] = * = values obtained upon reassay
[3] = Homo sapiens, * = values obtained upon reassay
[4] = Homo sapiens, PBMC, * = values obtained upon reassay

Row | Compound | IC50 (IL-1β, human whole blood; [2]) [nM] | IC50 (IL-1β, human whole blood; [3]) [nM] | Ki (ICE; Table 5) [nM] | IC50 (IL-1β, human whole blood; Homo sapiens, Table 17) [nM] | Ki (ICE; Table 17) [nM] | IC50 [1, 4] [nM] | IC50 ([1]; Homo sapiens, PBMC, Table 17) [nM] | IC50 [1, 2] [nM]
1 | COc1ccc(C(=O)N[C@H]2CCC(=O)N3CCC[C@@H](C(=O)N[C@H](C=O)CC(=O)O)N3C2=O)cc1F [Compound 493] | 850 | 800 | 25 | – | – | 1200 | – | –
2 | O=C[C@H](CC(=O)O)NC(=O)[C@@H]1CCCN2C(=O)CCN(NC(=O)CCc3ccccc3)C(=O)N12 [Compound 1105] | – | – | – | 3000 | 250 | – | 3500 | –
3 | CCCC(=O)Nc1ccc(C(=O)N[C@H]2CCC(=O)N3CCC[C@@H](C(=O)N[C@H](C=O)CC(=O)O)N3C2=O)cc1 [Compound 488] | – | 750 | 1.5 | – | – | 940 | – | –
4 | O=C[C@H](CC(=O)O)NC(=O)[C@@H]1CCCN2C(=O)CC[C@H](NC(=O)/C=C/c3ccccc3)C(=O)N12 [Compound 494] | – | 7000 | 15 | – | – | 1350 | – | 1500
5 | CS(=O)(=O)Nc1ccc(C(=O)N[C@H]2CCC(=O)N3CCC[C@@H](C(=O)N[C@H](C=O)CC(=O)O)N3C2=O)cc1 [Compound 447] | – | 1500 | 5.8 | – | – | 2500 | – | –
6 | CS(=O)(=O)c1ccc(C(=O)N[C@H]2CCC(=O)N3CCC[C@@H](C(=O)N[C@H](C=O)CC(=O)O)N3C2=O)cc1 [Compound 460] | – | 2400 | 115 | – | – | 400 | – | –
7 | Nc1ccc(C(=O)N[C@H]2CCC(=O)N3CCC[C@@H](C(=O)N[C@H](C=O)CC(=O)O)N3C2=O)cc1 [Compound 431] | – | 8000 | 8 | – | – | > 8000 | – | –
8 | O=C[C@H](CC(=O)O)NC(=O)[C@@H]1CCCN2C(=O)CC[C@H](NC(=O)c3ccccc3Cl)C(=O)N12 [Compound 406] | – | 2300 | 4 | – | – | 1650 | – | –
9 | O=C[C@H](CC(=O)O)NC(=O)[C@@H]1CCCN2C(=O)CC[C@H](NC(=O)c3c(Cl)cccc3Cl)C(=O)N12 [Compound 444] | – | 3500 | 15 | – | – | 3500 | – | –
10 | CC(C)(C)OC(=O)C[C@@H](C=NOCc1c(Cl)cccc1Cl)NC(=O)[C@@H]1CCCN2C(=O)CC[C@H](NC(=O)c3ccccc3)C(=O)N12 [Compound 307a, [3S(1S,9S)3-(9-Benzoylamino-6,10-dioxo-1,2,3,4,7,8,9,10-octahydro-6H-pyridazino-[1,2-a][1,2]diazapine-1-carboxamido)-amino]-4-oxobutanoicacid t-butyl ester, O-(2,6-dichlorophenylmethyl)oxime] | 16000 | – | 55 | – | – | – | – | 14500
11 | Cc1cc(C(=O)N[C@H]2CCC(=O)N3CCC[C@@H](C(=O)N[C@H](C=O)CC(=O)O)N3C2=O)no1 [Compound 424] | – | 4000 | 45 | – | – | 2500 | – | –
12 | O=C(O)CC(NC(=O)[C@@H]1CCCN2C(=O)CC[C@H](NC(=O)c3ccccc3)C(=O)N12)C(=O)COCc1ccccc1Cl (some centres unmarked) [Compound 227e] | – | 550 | 7 | – | – | 234 | – | –
13 | O=C[C@H](CC(=O)O)NC(=O)[C@@H]1CCCN2C(=O)CC[C@H](NC(=O)OCc3ccccc3)C(=O)N12 [Compound 496] | – | 6000 | 16 | – | – | 1550 | – | 1600
14 | O=C[C@H](CC(=O)O)NC(=O)[C@@H]1CCCN2C(=O)CC[C@H](NC(=O)c3ccc4ccccc4c3)C(=O)N12 [Compound 407] | – | 1700 | 0.4 | – | – | 540 | – | –
15 | O=C[C@H](CC(=O)O)NC(=O)[C@@H]1CCCN2C(=O)CCN(NC(=O)C(=O)c3ccccc3)C(=O)N12 [Compound 1106] | – | – | – | 1700 | 75 | – | 4000 | –
16 | CNC(=O)Nc1ccc(C(=O)N[C@H]2CCC(=O)N3CCC[C@@H](C(=O)N[C@H](C=O)CC(=O)O)N3C2=O)cc1 [Compound 489] | – | 15000 | 6 | – | – | 2250 | – | 1700

Further lines, with some results ahead:

Row | IC50 (IL-1β, human whole blood; [2]) [nM] | IC50 (IL-1β, human whole blood; [3]) [nM] | Ki (ICE; Table 5) [nM] | IC50 (IL-1β, human whole blood; Homo sapiens, Table 17) [nM] | Ki (ICE; Table 17) [nM] | Compound | IC50 [1, 4] [nM] | IC50 ([1]; Homo sapiens, PBMC, Table 17) [nM] | IC50 [1, 2] [nM]
17 | – | 8000 | 43 | – | – | CC(=O)Nc1ccc(C(=O)N[C@H]2CN(C(C)=O)c3ccccc3N(CC(=O)N[C@H](C=O)CC(=O)O)C2=O)cc1 [Compound 627] | 3250 | – | –
18 | – | – | – | 2000 | 2.2 | COCC(=O)N1C[C@H](NC(=O)c2cc(C)c(O)c(C)c2)C(=O)N(CC(=O)N[C@H](C=O)CC(=O)O)c2ccccc21 [Compound 689b, (3S)-3-[(3S)-2-Oxo-3-(3,5-dimethyl-4-hydroxybenzoyl)amino-5-methoxyacetyl-2,3,4,5-tetrahydro-1H-1,5-benzodiazepine-1-acetylamino]-4-oxo-butyric acid] | – | 600 | –
19 | – | – | – | 2100 | 3 | COc1c(C)cc(C(=O)N[C@H]2CN(C(=O)CO)c3ccccc3N(CC(=O)N[C@H](C=O)CC(=O)O)C2=O)cc1C [Compound 694, (3S)-3-[(3S)-2-Oxo-3-(3,5-dimethyl-4-methoxybenzoyl)amino-5-hydroxyacetyl-2,3,4,5-tetrahydro-1H-1,5-benzodiazepine-1-acetylamino-]4-oxo-butyric acid] | – | 2600 | –
20 | – | – | – | 3900 | 155 | COCC(=O)N1C[C@H](NCc2ccc3ccccc3c2)C(=O)N(CC(=O)N[C@H](C=O)CC(=O)O)c2ccccc21 [Compound 640, (3S)-3-[(3S)-2-Oxo-3-(2-naphthylmethylene)amino-5-methoxyacetyl-2,3,4,5-tetrahydro-1H-1,5-benzodiazepine-1-acetylamino]-4-oxo-butyric acid] | – | 2250 | –
21 | – | – | – | 1900 | 11.5 | CC(=O)Nc1c(Cl)cc(C(=O)N[C@H]2CN(C(=O)CO)c3ccccc3N(CC(=O)N[C@H](C=O)CC(=O)O)C2=O)cc1Cl [Compound 915] | – | > 8000 | –
22 | – | – | – | 9800 | 30 | COc1ccc(C(=O)C(=O)N[C@H]2CN(C(C)=O)c3ccccc3N(CC(=O)N[C@H](C=O)CC(=O)O)C2=O)cc1 [Compound 704] | – | 2600 | –
23 | – | – | – | 4300 | 4 | O=C[C@H](CC(=O)O)NC(=O)CN1C(=O)[C@@H](NC(=O)c2cc3ccccc3[nH]2)CN(C(=O)CO)c2ccccc21 [Compound 919] | – | 2000 | –
24 | – | – | – | 3800 | 10 | O=C[C@H](CC(=O)O)NC(=O)CN1C(=O)[C@@H](NC(=O)c2ccc3c(c2)OCO3)CN(C(=O)CO)c2ccccc21 [Compound 910] | – | 3400 | –
25 | – | 19000 | 35 | – | – | CC(=O)N1C[C@H](NC(=O)c2nccc3ccccc23)C(=O)N(CC(=O)N[C@H](C=O)CC(=O)O)c2ccccc21 [Compound 620] | 1000 | – | –
26 | – | – | – | 5800 | 5 | COc1cccc(OC)c1C(=O)C(=O)N[C@H]1CN(C(C)=O)c2ccccc2N(CC(=O)N[C@H](C=O)CC(=O)O)C1=O [Compound 706] | – | 2400 | –
27 | – | – | – | 2500 | 0.8 | COCC(=O)N1C[C@H](NC(=O)c2cc(Cl)c(O)c(Cl)c2)C(=O)N(CC(=O)N[C@H](C=O)CC(=O)O)c2ccccc21 [Compound 689a, (3S)-3-[(3S)-2-Oxo-3-(3,5-dichloro-4-hydroxybenzoyl)amino-5-methoxyacetyl-2,3,4,5-tetrahydro-1H-1,5-benzodiazepine-1-acetylamino]-4-oxo-butyric acid] | – | 910 | –
28 | – | – | – | 3800 | 10 | COc1ccc(C(=O)N[C@H]2CN(C(=O)CO)c3ccccc3N(CC(=O)N[C@H](C=O)CC(=O)O)C2=O)cc1 [Compound 912] | – | 4200 | –
29 | – | – | – | 9000 | 4 | Nc1ccc(C(=O)N[C@H]2CN(C(=O)CO)c3ccccc3N(CC(=O)N[C@H](C=O)CC(=O)O)C2=O)cc1Cl [Compound 686] | – | 4000 | –
30 | – | 20000 | 92 | – | – | CC(=O)N1C[C@H](NC(=O)OCc2ccccc2)C(=O)N(CC(=O)N[C@H](C=O)CC(=O)O)c2ccccc21 [Compound 633] | 5750 | – | –
31 | – | – | – | 3000 | 16 | O=C[C@H](CC(=O)O)NC(=O)CN1C(=O)[C@@H](NC(=O)c2ccc3[nH]cnc3c2)CN(C(=O)CO)c2ccccc21 [Compound 920] | – | 2100 | –
32 | – | – | – | 20000 | 5 | CC(=O)N1C[C@H](NC(=O)C(=O)c2c[nH]c3ccccc23)C(=O)N(CC(=O)N[C@H](C=O)CC(=O)O)c2ccccc21 [Compound 703] | – | 1400 | –
33 | 260 | 380 | < 0.2 | – | – | Nc1c(Cl)cc(C(=O)N[C@H]2CCC(=O)N3CCC[C@@H](C(=O)N[C@H](C=O)CC(=O)O)N3C2=O)cc1Cl [Compound 482] | 340 | – | –
34 | – | > 20000 | 36 | – | – | CC(=O)N1C[C@H](NC(=O)c2ccc3c(c2)OCO3)C(=O)N(CC(=O)N[C@H](C=O)CC(=O)O)c2ccccc21 [Compound 628] | 2750 | – | –
35 | – | – | – | 3000 | 8.5 | COc1ccccc1C(=O)C(=O)N[C@H]1CN(C(=O)CO)c2ccccc2N(CC(=O)N[C@H](C=O)CC(=O)O)C1=O [Compound 921] | – | 1800 | –
